Results taken from patent publication US20240390490A1, “PHARMACEUTICAL COMPOSITIONS FOR THE TREATMENT OF CANCERS” (Rutgers, The State University of New Jersey, priority 2021, published 2024).

How the values were obtained:
MDA-MB-231 cells [1] = assay: Clonogenic (colony formation) assay; assay type: cell-based, human; settings: 100 μM, 14 days
Procedure: The clonogenic assay was performed as previously described (25). Briefly, cells were suspended in culture media and were seeded into 6-well tissue culture plates at a density of 1,000 cells/well, allowed to adhere overnight, and treated with vehicle alone or a 100 μM concentration of beta-adrenergic and opioidergic drugs alone or in combination. Fresh medium and drugs were changed every 3 or 4 days for 14 days. At the end of the experiment, the cell colonies were stained with 0.5% crystal violet, subjected to image acquisition, and quantified in Adobe Photoshop (Adobe Systems, San Jose, CA). The crystal violet-stained cell colonies were extracted with 10% acetic acid and used for optical density (OD) measurements for determination of colony growth. Drug effects on these cells were determined in duplicate wells in three independent experiments.

[2] = test system: MDA-MB-231-cell-derived xenografts; assay: Histopathology, immunohistochemistry and western blot of xenograft tumors; assay type: in vivo, rat; settings: for level of E-cadherin in tumors / level of N-cadherin in tumors / levels of Snail, Slug, and Twist in tumors: immunoblotting; for level of CC3 in tumor tissue / levels of Bcl-xL and Bcl-2 in tumor tissue: western blot
Procedure: At the end of the experiment, a portion of tumor tissues was fixed in 10% neutral buffered formalin overnight and embedded in paraffin, was cut into 5-μm-thick sections, and stained with H&E according to previous publications (8). Representative areas of tumor were analyzed for the presence of tumor cells and photographs were captured under a light microscope (20× magnification) as previously described.
For protein analyses, tumor tissues from in vivo experiments, enriched NK cells from the spleen, and NK-92 MI cancer cell co-incubated samples were lysed with a buffer containing protease and phosphatase inhibitors (25 mM Tris-HCl, pH 7.4; 150 mM NaCl; 1% Nonidet P-40; 1 mM EDTA; and 5% glycerol with Pierce Halt Protease Inhibitor). Protein ([…]) from total lysate was loaded and separated on a 4-20% SDS-PAGE and transferred overnight to polyvinylidene difluoride membranes. Membranes were incubated with primary Ab for 12 hours at 4° C. in blocking buffer, 5% w/v nonfat dry milk in TBS, and 0.1% Tween 20. The following primary antibodies were purchased from Santa Cruz Biotechnology (Santa Cruz, CA): anti-perforin rabbit polyclonal (1:250), anti-granzyme B mouse monoclonal (1:200), anti-IFN-γ mouse monoclonal (1:250), anti-Snail (1:200), anti-Slug (1:200), and anti-Twist. Anti-E-cadherin (1:250), anti-N-cadherin (1:250), and anti-NKG2D goat polyclonal (1:500) were all from Abcam (Cambridge, MA). Membranes were washed and incubated with peroxidase-conjugated secondary Abs (1:5000; Vector Laboratories) for 1 hour at room temperature. Membranes were incubated with ECL western blot chemiluminescence reagent (Pierce) and exposed to x-ray film, which was developed, and densitometry was performed using Image J analysis software (National Institutes of Health). Each protein was normalized to corresponding intensities for β-actin.
Thin paraffin sections (5 μm) of tumors were stained using the ABC Elite Vectastain Kit (Vector Labs) according to the manufacturer's instructions using various primary antibodies. Details of all primary antibodies used are described above. In addition, cell proliferation-associated antigen (Ki-67; 1:200) were purchased from Abcam. After the primary antibody incubation and PBS wash, sections were incubated with peroxidase-coupled anti-rabbit Ig ImmPRESS reagent (Vector Laboratories, Inc.). Antigen localization was achieved by using the 3,3′-diaminobenzidine-peroxidase reaction, and sections were dehydrated, and cover slipped. To evaluate the immunohistochemical staining, sections were photographed using a Nikon-TE 2000 inverted microscope. Intensity of staining was categorized as negative and strongly positive (27). Brown-stained spots are immuno positive cells. Data are means±SEM obtained from 3 serial sections of 5 to 6 animals in each group.

MDA-MB-231 cells [3] = assay: Cell cycle analysis (PI staining); assay type: cell-based, human; settings: 100 μM
Procedure: Cell cycle analysis of breast cancer cells was carried out using propidium iodide (PI) staining protocol according to the manufacturer's instructions (Nexcelom Bioscience LLC, Lawrence, MA). […] Then, cells were harvested by trypsinization, centrifuged at 2000 rpm for 5 minutes, washed with PBS (pH 7.4), and fixed in ice cold 100% ethanol for 15 minutes. The cells were spun down and resuspended in 150 μl of PI-staining solution provided with the Cellometer PI Cell Cycle Kit. The PI-stained cells were then subjected to analysis in the Cellometer Vision instrument (Nexcelom Bioscience LLC) and the data was captured on Cellometer Vision CBA software (Nexcelom Bioscience LLC) and analyzed by FCS Express 4 software (Molecule Devices, Corp., Sunnyvale, CA). Differences in fluorescence intensity were used to determine the percentage of cells in each phase of the cell cycle and represented as histograms for control and drug-treated samples.

[4] = test system: plasma cytokines and chemokines; assay: Plasma cytokines multiplex immunoassay; assay type: in vivo, rat
From the text: After the end of the drug treatment period, plasma samples from control and drug-treated rats were processed and used for cytokine detection. Cytokines were quantified in plasma samples using the ProcartaPlex multiplex immunoassay technology. These immunoassays are bead-based assays for protein quantification based on the principles of a sandwich Elisa with the use of Luminex® xMAP® (multianalyte profiling) technology. The Rat Cytokine & Chemokine 22-plex ProcartaPlex Panel is a preconfigured multiplex immunoassay kit that measures 22 protein targets using Luminex xMAP technology. Plasma samples were diluted with universal assay buffer (1:1) and added into a 96-well flat bottom plate to the magnetic beads. The plate was sealed and covered before incubation of 2 hours at room temperature with 500 rpm shaking. After inserting the plate into the handheld magnetic plate washer, the plate was washed 3 times using a specific wash buffer. 25 μL of detection antibody mixture was to the plate and incubated it for 30 minutes at room temperature at 500 rpm. The plate was washed 3 times. Then 50 μL of SAPE solution were added to the plate before a novel 30-minute incubation at room temperature at 500 rpm. The plate was washed 3 times. Finally, 120 μL of reading buffer were add to the plate and incubated for 5 minutes at room temperature at 500 rpm before reading and analyzing with the Luminex™ instrument (MAGPIX® xPONENT®, R&D System, ThermoFisher). Median fluorescence index (MFI) was calculated and presented.

## CC1(C)SSC(C)(C)[C@@H](NC(=O)[C@@H](N)Cc2ccc(O)cc2)C(=O)NCC(=O)N[C@@H](Cc2ccccc2)C(=O)N[C@H]1C(=O)O [DPDPE, (D-Pen^2, D-Pen^5)-enkephalin]
MDA-MB-231 cells [1]
  colony formation: moderate inhibition
[2]
  level of E-cadherin in tumors: increase
  level of N-cadherin in tumors: decrease
  levels of Snail, Slug, and Twist in tumors: reduced
  level of CC3 in tumor tissue: increased
  levels of Bcl-xL and Bcl-2 in tumor tissue: decreased
MDA-MB-231 cells [3]
  number of cells in G0/G1 phase: reduced
  number of cells in G2/M phase: increased
  number of cells in S phase: no significant changes
[4]
  chemokines RANTES and MCP-1: inhibited

## O=C1CC[C@@]2(O)[C@H]3Cc4ccc(O)c5c4[C@@]2(CCN3CC2CC2)[C@H]1O5 [NTX, 17-(cyclopropylmethyl)-4,5α-epoxy-3,14-dihydroxymorphinan-6-one]
MDA-MB-231 cells [1]
  colony formation: moderate inhibition
[2]
  level of CC3 in tumor tissue: increased
  levels of Bcl-xL and Bcl-2 in tumor tissue: decreased
MDA-MB-231 cells [3]
  number of cells in G0/G1 phase: reduced
  number of cells in G2/M phase: increased
  number of cells in S phase: no significant changes
[4]
  IFN-γ: elevated
  chemokines RANTES and MCP-1: inhibited

## CC(C)NCC(O)COc1cccc2ccccc12 (stereo not drawn) [PRO, propranolol]
MDA-MB-231 cells [1]
  colony formation: moderate inhibition
[2]
  level of E-cadherin in tumors: increase
  level of N-cadherin in tumors: decrease
  levels of Snail, Slug, and Twist in tumors: reduced
  level of CC3 in tumor tissue: increased
  levels of Bcl-xL and Bcl-2 in tumor tissue: decreased
MDA-MB-231 cells [3]
  number of cells in G0/G1 phase: reduced
  number of cells in G2/M phase: increased
  number of cells in S phase: no significant changes
[4]
  IFN-γ: elevated
  chemokines RANTES and MCP-1: inhibited
  inflammatory cytokines and chemokines G-CSF/CSF-3, IL-1 alpha, IL-10, IL-6, IL-5, Gro-α, TNF-α, MCP-3, and IL-17A: inhibited
